# Results reported in patent US9567347B2, “Use of small molecule inhibitors targeting the interaction between RAC GTPase and p67(phox)” (CHILDREN'S HOSPITAL MEDICAL CENTER, priority 2012, dated 2017).
# Read-outs that look alike come from different tables or passages of the source.
# Experiments:
# [1] = system: primary human neutrophils; assay: luminol chemiluminescence assay of fMLP-induced ROS production; type: cell-based
# Description: HL-60 cells were propagated in RPMI 1640 medium containing 10% heat inactivated fetal bovine serum, 2 mM L-glutamine, 100 U/mL penicillin/streptomycin at 37° C. in air containing 5% CO2. For differentiation, HL-60 cells were cultured in 1.3% dimethyl sulfoxide (DMSO) as previously described (Servant, G., et al. (1999) Mol Biol Cell 10, 1163-1178, hereby incorporated by reference in its entirety). Primary murine neutrophils were isolated from C57Bl/6 mouse bone marrow according to a published protocol (Filippi et al., (2004) Nat Immunol 5, 744-751, hereby incorporated by reference in its entirety) using a discontinuous Percoll (Pharmacia) gradient and were utilized immediately in experiments. Human neutrophils were obtained from fresh blood (IRB #2010-1855, Cincinnati Children's Hospital medical Center) following a well established protocol using density gradient separation from whole blood (Oh et al. (2008) J Vis Exp., 17, pii: 745, hereby incorporated by reference in its entirety). […]
# Chemiluminescence was measured using GloMax®-96 Microplate Luminometer (Promega) (Tarpey et al., (2004) Am J Physiol Regul Integr Comp Physiol 286: R431-R444, hereby incorporated by reference in its entirety). […]
# dHL-60 cells = assay: DCFDA ROS assay after wash and recovery (affinity assay); type: cell-based, human; conditions: 2 hr treatment, recovery 4 hr or 2 hr
# Description: (A) Apoptosis analysis by FACS of HL-60 cells treated with compound or vehicle control for 2 hours prior to 7-AAD and Annexin V staining. (B) HL-60 cells from A were harvested and lysates were immunoblotted for levels of pPAK, and actin was used as a control for loading. (C) F-actin reorganization in freshly isolated fMLP-stimulated primary murine neutrophils was analyzed. […] Cells were exposed to a 10 μM dose of Phox-I1, Phox-I2, and Analog 13, and 200 nM nocodazole. (D) The effect of Phox-I on NOX4 mediated ROS production was tested in primary murine neutrophils transfected with a NOX4 expressing plasmid. 10 μM Phox-I1 was applied to the cells for 30 min prior to ROS assay by luminol chemiluminescence in the presence of HRP. The fMLP-stimulated ROS activity in the presence or absence of 10 uM Phox-I1 was measured in parallel. (E) The antioxidant abilities of these lead compounds were tested by prestimulating dHL-60 cells with fMLP for 30 minutes prior to treatment with Phox-I1 or Phox-I2. Levels of superoxide were analyzed by DCFDA assay and FACS. NAC, apocyanin, DPI, and NSC23766 treated cells served as controls. (F) For affinity assay, DMSO-differentiated HL-60 cells were treated with standard effective dose of indicated compound for 2 hours, washed, and allowed to recover in normal media for 4 hours or 2 hours prior to fMLP stimulation and DCFDA ROS production assay by FACS analysis. (G) For stability assay, DMSO-differentiated HL-60 cells were treated with 20 μM dose of compound for the indicated time period prior to fMLP stimulation and DCFDA ROS production assay by FACS analysis.
# Next, a stability experiment was performed to determine the duration of effectiveness of the compound in suppressing neutrophils. To analyze the relative affinities of these compounds for the p67^phox target in cells, DCFDA ROS production assays were performed in dHL-60 cells treated with compound for 2 hr followed by wash and recovery for 4 hr or 2 hr in normal media prior to ROS production analysis.
# [2] = system: fMLP-stimulated differentiated HL-60 cells; assay: H2-DCFDA FACS ROS production assay in fMLP-stimulated differentiated HL-60 cells; type: cell-based, human; conditions: for IC50: dHL-60 cells, DCFDA assay; for inhibition of ROS production, Phox-I1 analogs: FIG. 3B
# Description: HL-60 cells were propagated in RPMI 1640 medium containing 10% heat inactivated fetal bovine serum, 2 mM L-glutamine, 100 U/mL penicillin/streptomycin at 37° C. in air containing 5% CO2. For differentiation, HL-60 cells were cultured in 1.3% dimethyl sulfoxide (DMSO) as previously described (Servant, G., et al. (1999) Mol Biol Cell 10, 1163-1178, hereby incorporated by reference in its entirety). Primary murine neutrophils were isolated from C57Bl/6 mouse bone marrow according to a published protocol (Filippi et al., (2004) Nat Immunol 5, 744-751, hereby incorporated by reference in its entirety) using a discontinuous Percoll (Pharmacia) gradient and were utilized immediately in experiments. Human neutrophils were obtained from fresh blood (IRB #2010-1855, Cincinnati Children's Hospital medical Center) following a well established protocol using density gradient separation from whole blood (Oh et al. (2008) J Vis Exp., 17, pii: 745, hereby incorporated by reference in its entirety).
# Cells (5×10^5) were harvested and processed for Annexin V/7AAD staining according to manufacturer's protocol (Becton Dickinson). Flow cytometry data were acquired on a FACS Canto bench-top flow cytometer (Becton Dickinson) and the cell cycle distributions were determined by […] using Flo-Jo software (Bosco et al (2010) Blood 115, 3320-3328, hereby incorporated by reference in its entirety). For ROS production assay, primary murine neutrophils or dHL60 cells were incubated with compound for 2 hours prior to addition of H2-DCFDA according to manufacturer's instructions (Molecular Probes). Cells were then stimulated with 10 μM fMLP (Sigma), 1 mM CaCl2, and 1.5 mM MgCl2 for 15 minutes prior to wash and FACS analysis for mean fluorescence intensity. Non-fMLP stimulated control values were subtracted from all samples before normalization to fMLP-stimulated, vehicle control treated sample in order to display percent ROS inhibition.
# To validate the hits from preliminary screening in cells, several cellular functional assays were performed using different cell types to measure the effect of compounds on inhibition of ROS production. ROS levels were first analyzed by fluorescence-activated cell sorting (FACS) in HL-60 pre-incubated with compounds for 2 hr prior to stimulation of ROS production. The p67^phox inhibitor, Phox-I1, was tested against NAC (a ROS scavenger), DPI (a broad range inhibitor of NADPH oxidase), and NSC23766 (a Rac-GTP inhibitor; FIG. 2A). […] H2O2 added to the cells was included as a positive control for ROS measurement. Second, to test the capacity of Phox-I1 to inhibit ROS production in a primary cell context, primary murine neutrophils isolated from mouse bone marrow were treated with increasing concentrations of Phox-I1 and the efficacy of inhibition of fMLP-stimulated ROS production was analyzed. DPI treatment was included as a positive control for inhibition of ROS production (FIG. 2B). […] Next, to ascertain the optimal effective dose for ROS inhibition in cells, a dose titration series of Phox-I1 was administered to dHL-60 cells (FIG. 2C).
SMILES,IC50 ([1]; Neutrophil),ROS inhibition after wash (dHL-60 cells),"ROS production compared to standard ROS inhibitors ([2]; 20 μM, pre-incubated 2 hr)","IC50 ([2]; Homo sapiens, HL-60)",dose of optimal cellular response ([2]; dose titration in dHL-60 cells),"inhibition of ROS production, Phox-I1 analogs ([2]; pre-incubated 2 hr)",IC50 [1],IC50 [2],"inhibition of ROS production, Phox-I1 analogs ([2]; pre-incubated 2 hr, listed as Analog 16)","inhibition of ROS production, Phox-I1 analogs ([2]; pre-incubated 2 hr, listed as analog 16)"
COc1ccc2c(c1)C1C=C(c3ccccc3)NN1C(c1cccc([N+](=O)[O-])c1)O2 (centres unmarked) [Phox-I1],~8 µM,still evident,able to attenuate ROS production,~3000 nM,10 µM,greatest inhibition of ROS production,,,,
O=[N+]([O-])c1cccc(C2Nc3ccc([N+](=O)[O-])cc3C3C=CCC32)c1 (centres unmarked) [Phox-I2],,did not display effective ROS inhibition,,,,,~6 µM,~1000 nM,improved ROS inhibition over Phox1,greatest inhibition of ROS production
